Assays:
[1] = tested on: PC3, a human prostate cancer cell line; experiment: MTT toxicity assay in PC3 prostate cancer cells; assay type: cell-based
Procedure: Toxicity of the dibenzyl butyl lactone derivative (3-[(3,4-dimethoxyphenyl)cyclopentyl], 4-[(3-hydroxyphenol)methyl]oxolan-2-one) in breast cancer cells was evaluated using MTT assay. The MTT toxicity test is a colorimetric assay to measure cells' metabolic activity by serving as a substrate of cellular enzymes that reduce the tetrazolium orange dye, MTT (3-(4,5-Dimethylthiazol-2-yl)-2,5-diphenyltetrazolium bromide) to its insoluble, formazan, giving a purple color. The rate of conversion is directly proportional to cells' mitochondrial metabolic activity via NAD (P) H-dependent cellular oxidoreductase enzymes and serves as a surrogate marker of cell viability.
Cells previously expanded were seeded in 96 well plates at 1.9×10^5 and 9.6×10^4 cells/plate for 24- and 72-hours treatment respectively. This concentration is known to show the best window for the MTT assay, with better sensitivity and low variability.
5 mg of powdered enterolactone, dibenzyl butyl lactone derivative enantiomer A, and dibenzyl butyl lactone derivative enantiomer B were dissolved in 500 μl of DMSO at room temperature. Eight-point curves, ⅓ dilutions (highest concentration 125 μM), were prepared.
Twenty-four hours following the seeding process, the cells were washed once with phosphate buffered saline (PBS) and treated with the respective compounds in cell culture media. Each condition was tested in triplicates. For positive and negative controls, 8 mM methyl methane sulfonate (MMS) and DMSO 100% were used respectively.
Following compound addition, the plates were incubated for 24 and 72 hours. After the treatment period, cells were washed twice with PBS and media was replaced with MTT reagent at 0.5 mg/ml in Dulbecco's modified Eagle medium (DMEM) without phenol red. The plates were gently shaken and incubated for 4 hours. After the incubation the medium was removed and replaced by DMSO. The plates were gently shaken to solubilize the formazan crystals. Absorbance was measured using an Envision multiplate reader at a wavelength of 570 nm.
Toxicity of the dibenzyl butyl lactone derivative (3-[(3,4-dimethoxyphenyl)cyclopentyl], 4-[(3-hydroxyphenol)methyl]oxolan-2-one) in prostate cancer cells was evaluated using MTT assay. The same methods as those used in Example 2 were employed, except the cell line used was PC3, a human prostate cancer cell line, and cell cultures were established in Kaighn's modification of Ham's […] medium.
MTT assay results are shown in Tables 16-21 and expressed as the percentage of cell death after treatment.

[2] = target: telomerase (Homo sapiens, UniProt O14746); experiment: Q-TRAP telomerase activity in MCF7 breast cancer cells; assay type: cell-based; design: allow the enzymatic addition of telomeric DNA repeats by endogenous telomerase; endogenous in cells
Chain of telomerase (O14746 whole entry): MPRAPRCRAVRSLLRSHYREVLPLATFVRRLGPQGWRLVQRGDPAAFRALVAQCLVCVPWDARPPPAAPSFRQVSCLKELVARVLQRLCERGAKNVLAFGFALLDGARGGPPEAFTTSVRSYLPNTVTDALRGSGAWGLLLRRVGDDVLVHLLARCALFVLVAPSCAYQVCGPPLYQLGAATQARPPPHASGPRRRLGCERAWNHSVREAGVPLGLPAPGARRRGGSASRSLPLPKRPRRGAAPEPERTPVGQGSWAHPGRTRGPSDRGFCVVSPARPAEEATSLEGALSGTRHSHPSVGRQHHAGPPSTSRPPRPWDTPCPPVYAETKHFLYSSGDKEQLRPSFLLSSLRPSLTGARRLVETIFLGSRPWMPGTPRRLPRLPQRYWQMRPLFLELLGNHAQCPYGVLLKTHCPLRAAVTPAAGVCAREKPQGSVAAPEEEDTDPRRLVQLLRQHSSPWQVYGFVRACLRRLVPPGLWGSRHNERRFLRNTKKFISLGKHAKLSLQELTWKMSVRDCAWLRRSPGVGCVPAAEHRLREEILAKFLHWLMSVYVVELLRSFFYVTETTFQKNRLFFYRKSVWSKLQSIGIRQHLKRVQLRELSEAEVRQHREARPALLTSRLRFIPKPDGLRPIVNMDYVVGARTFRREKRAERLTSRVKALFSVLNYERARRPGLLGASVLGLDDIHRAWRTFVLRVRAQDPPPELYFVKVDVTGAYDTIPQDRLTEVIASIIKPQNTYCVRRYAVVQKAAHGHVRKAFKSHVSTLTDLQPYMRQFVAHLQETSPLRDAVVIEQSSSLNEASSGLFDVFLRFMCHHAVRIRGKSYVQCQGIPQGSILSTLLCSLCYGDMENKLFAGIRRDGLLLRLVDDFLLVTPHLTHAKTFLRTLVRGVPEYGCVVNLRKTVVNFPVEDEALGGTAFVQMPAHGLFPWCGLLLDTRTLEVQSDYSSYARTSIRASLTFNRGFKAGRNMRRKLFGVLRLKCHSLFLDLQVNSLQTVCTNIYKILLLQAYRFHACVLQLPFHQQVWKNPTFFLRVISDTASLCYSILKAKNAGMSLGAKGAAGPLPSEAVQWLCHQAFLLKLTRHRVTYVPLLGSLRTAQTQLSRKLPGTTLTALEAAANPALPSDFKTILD
Chain of telomerase (O60832 whole entry partner): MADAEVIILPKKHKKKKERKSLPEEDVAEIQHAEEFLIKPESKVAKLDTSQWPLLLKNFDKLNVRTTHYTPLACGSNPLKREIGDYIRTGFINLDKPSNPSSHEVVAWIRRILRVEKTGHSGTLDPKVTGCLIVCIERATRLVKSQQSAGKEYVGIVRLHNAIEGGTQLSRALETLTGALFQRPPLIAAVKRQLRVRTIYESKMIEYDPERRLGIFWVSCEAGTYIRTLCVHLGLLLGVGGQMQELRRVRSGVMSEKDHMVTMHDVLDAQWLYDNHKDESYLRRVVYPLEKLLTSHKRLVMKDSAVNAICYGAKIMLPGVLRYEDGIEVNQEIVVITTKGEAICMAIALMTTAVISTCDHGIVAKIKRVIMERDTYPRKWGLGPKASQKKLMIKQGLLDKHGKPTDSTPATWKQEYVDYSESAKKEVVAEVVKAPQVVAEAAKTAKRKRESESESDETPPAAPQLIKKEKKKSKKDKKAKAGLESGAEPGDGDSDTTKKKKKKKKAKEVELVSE
Chain of telomerase (Q9NPE3 whole entry partner): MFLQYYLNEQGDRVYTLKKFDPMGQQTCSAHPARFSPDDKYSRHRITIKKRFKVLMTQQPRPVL
Chain of telomerase (Q9NX24 whole entry partner): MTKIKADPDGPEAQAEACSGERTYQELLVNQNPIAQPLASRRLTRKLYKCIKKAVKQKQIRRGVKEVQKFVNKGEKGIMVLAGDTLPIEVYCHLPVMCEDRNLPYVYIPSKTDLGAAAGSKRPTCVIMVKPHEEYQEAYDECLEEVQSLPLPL
Chain of telomerase (Q9NY12 whole entry partner): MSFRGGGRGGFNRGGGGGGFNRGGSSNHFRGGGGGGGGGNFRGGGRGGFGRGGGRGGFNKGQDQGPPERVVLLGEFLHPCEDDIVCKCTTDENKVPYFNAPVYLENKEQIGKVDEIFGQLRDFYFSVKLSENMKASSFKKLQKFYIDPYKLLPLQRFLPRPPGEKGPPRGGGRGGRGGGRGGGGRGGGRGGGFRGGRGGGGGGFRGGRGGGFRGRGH
Chain of telomerase (Q9BUR4 whole entry partner): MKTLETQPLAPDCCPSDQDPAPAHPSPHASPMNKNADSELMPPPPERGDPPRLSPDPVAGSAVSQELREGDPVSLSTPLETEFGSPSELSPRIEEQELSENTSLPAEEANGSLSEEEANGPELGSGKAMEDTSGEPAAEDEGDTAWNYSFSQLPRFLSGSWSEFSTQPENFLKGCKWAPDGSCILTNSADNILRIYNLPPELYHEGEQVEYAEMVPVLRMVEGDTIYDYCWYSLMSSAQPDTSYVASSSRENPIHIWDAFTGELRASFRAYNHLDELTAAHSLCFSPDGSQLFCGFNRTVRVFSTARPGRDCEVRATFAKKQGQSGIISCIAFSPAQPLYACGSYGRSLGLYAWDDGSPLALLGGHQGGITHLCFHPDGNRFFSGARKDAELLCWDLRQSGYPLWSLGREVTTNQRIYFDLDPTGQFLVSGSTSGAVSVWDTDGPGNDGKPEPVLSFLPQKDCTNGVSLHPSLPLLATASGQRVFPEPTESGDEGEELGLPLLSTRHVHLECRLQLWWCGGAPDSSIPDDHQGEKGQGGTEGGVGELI

## O=C1OC[C@H](Cc2cccc(O)c2)[C@H]1Cc1cccc(O)c1 (racemic) [Enterolactone, reference compound]
[1]; PC3, 24 hours, 0.06 μM
  Cell death #1 (%): −3.37%
  Cell death #2 (%): −20.79%
  Cell death #3 (%): −22.43%
  Cell death (%) MEAN: −15.53%
[1]; PC3, 24 hours, 0.17 μM
  Cell death #1 (%): −12.56%
  Cell death #2 (%): −5.41%
  Cell death #3 (%): −10.24%
  Cell death (%) MEAN: −9.40%
[1]; PC3, 24 hours, 0.51 μM
  Cell death #1 (%): −29.78%
  Cell death #2 (%): −35.88%
  Cell death #3 (%): −8.98%
  Cell death (%) MEAN: −24.88%
[1]; PC3, 24 hours, 1.54 μM
  Cell death #1 (%): −30.56%
  Cell death #2 (%): −47.58%
  Cell death #3 (%): −25.82%
  Cell death (%) MEAN: −34.65%
[1]; PC3, 24 hours, 4.63 μM
  Cell death #1 (%): −41.49%
  Cell death #2 (%): −38.59%
  Cell death #3 (%): −32.20%
  Cell death (%) MEAN: −37.42%
[1]; PC3, 24 hours, 13.89 μM
  Cell death #1 (%): −33.85%
  Cell death #2 (%): −41.29%
  Cell death #3 (%): −40.62%
  Cell death (%) MEAN: −38.59%
[1]; PC3, 24 hours, 41.67 μM
  Cell death #1 (%): −32.30%
  Cell death #2 (%): −17.98%
  Cell death #3 (%): −35.59%
  Cell death (%) MEAN: −28.62%
[1]; PC3, 24 hours, 125.00 μM
  Cell death #1 (%): 19.65%
  Cell death #2 (%): 12.01%
  Cell death #3 (%): 15.10%
  Cell death (%) MEAN: 15.59%
[1]; PC3, 72 hours, 0.06 μM
  Cell death #1 (%): −39.68%
  Cell death #2 (%): −40.18%
  Cell death #3 (%): −37.32%
  Cell death (%) MEAN: −39.06%
[1]; PC3, 72 hours, 0.17 μM
  Cell death #1 (%): −49.03%
  Cell death #2 (%): −43.54%
  Cell death #3 (%): −39.93%
  Cell death (%) MEAN: −44.17%
[1]; PC3, 72 hours, 0.51 μM
  Cell death #1 (%): −71.45%
  Cell death #2 (%): −77.56%
  Cell death #3 (%): −73.70%
  Cell death (%) MEAN: −74.24%
[1]; PC3, 72 hours, 1.54 μM
  Cell death #1 (%): −63.98%
  Cell death #2 (%): −69.71%
  Cell death #3 (%): −46.41%
  Cell death (%) MEAN: −60.03%
[1]; PC3, 72 hours, 4.63 μM
  Cell death #1 (%): −74.57%
  Cell death #2 (%): −70.83%
  Cell death #3 (%): −81.17%
  Cell death (%) MEAN: −75.52%
[1]; PC3, 72 hours, 13.89 μM
  Cell death #1 (%): −60.86%
  Cell death #2 (%): −51.02%
  Cell death #3 (%): −63.98%
  Cell death (%) MEAN: −58.62%
[1]; PC3, 72 hours, 41.67 μM
  Cell death #1 (%): −35.45%
  Cell death #2 (%): −32.21%
  Cell death #3 (%): −34.95%
  Cell death (%) MEAN: −34.20%
[1]; PC3, 72 hours, 125.00 μM
  Cell death #1 (%): 35.94%
  Cell death #2 (%): 32.46%
  Cell death #3 (%): 22.11%
  Cell death (%) MEAN: 30.17%
[2]; MCF7, 24 h
  IC50: > 40 µM
[2]; MCF7, 48 h
  IC50: > 40 µM
[2]; MCF7, 72 h
  IC50: > 40 µM
[2]; MCF7, Q-TRAP
  telomerase activity following treatment as compared to control (untreated) groups: no significant difference in telomerase activity
